Columns and labels:
[1] = tested on: photoreceptors; test: Paraquat-induced photoreceptor apoptosis in vitro; format: cell-based, Wistar albino rats
Experimental: Tyramide signal amplification (TSA)-FISH PerkinElmer, Boston, Mass., USA.); secondary antibodies, monoclonal antibodies to-Bax (sc-7480), Bcl-2 (sc-7382), rodopsine RET-P1 (sc-57433) (Santa Cruz Biotechnology, Inc.—USA), PhA, Docosahexaenoic acid, Paraquat Dichloride, (Sigma-Alldrich). Solvents and reactors had HPLC and analytic grade.
Purified cultures of neurons from Wistar albino rats were prepared according to Politi et al., (1966) and treated in a poli-ornithine medium as in Adler-R (1982). On the first day of culture, equal concentrations of DHA (9 mM) were added to neuron cultures, with 7 different concentrations of PhA ([…]), usually found in marine origin oils rich in DHA, and 2 controls without DHA, with or without Paraquat. On the third day of culture, Paraquat was added, incubating it for 24 h before fixing it for an hour with paraformaldehyde in a phosphate buffered saline (0.9% NaCl in 0.01 M NaH2PO4 [pH 7.4], following 15 minutes with Triton X-100 (0.1%). In the apoptosis, the expression of Bax and Bcl-2 was determined and quantified according to the method Rotstein-N P et al. (2003). For the cytochemical studies, 10 fields/samples were randomly quantified, where results represent the of 3 samples/plate mean for each concentration of DHA with PhA.

[2] = tested on: retinas from rats; test: MNU-induced retinal apoptosis in vivo
Experimental: The same materials and immunohystochemical and quantification methods as in Experiment A were used. Instead of using Paraquat for inducing apoptosis, N-Nitroso-N-methylurea (MNU) (Sigma-Alldrich) was used. Instead of analysing cultures in vitro, as in Experiment A, retins from sacrificed Wistar albino rats were analysed. For that purpose, 8 rats S-D with 42 days of age were selected and fed for 4 weeks with a standard basal diet. Each animal was fed in a different way: one rat was on a standard on control diet, while for the other 7 rats this diet was modified with DHA at 15%, having different concentrations of PhA as in Experiment A: 0/4/20/100/500/2500/12500 μgPhA/g of oil. After these 4 weeks, they were injected a single intraperitoneal injection of MNU (75 mg/kg body weight). All rats were on the same diet for 6 days, being sacrificed at the 7th day, after having fast for 24 hours, when the extraction of retinas was carried out, following the fixation and immunohystochemical processes as in Experiment A. For the cytochemical studies, 10 fields/samples were randomly quantified, where results represent the 10 eye/sample mean.

[3] = tested on: leukotrienes, prostaglandin E2, prostaglandin F2; conditions: cited from earlier work
[4] = toxic at doses as low as; cited from earlier work
[5] = DHA oils <5 μg/g of PhA compared with larger concentrations

Structure (SMILES) | anti-apoptotic activity in photoreceptors ([1]; DHA 9 mM with 0 and 4 μg/g of PhA, compared with ≧20 and ≧100 μg/g) | inhibitory activity of apoptosis (FIG. 1) [1, 5] | oxidative stress produced (FIG. 1) [1, 5] | anti-apoptotic activity in photoreceptors ([1]; DHA with ≧20 μg/g and ≧100 μg/g of PhA) | activity to inhibit apoptosis of photoreceptors ([1]; PhA concentration 2500 μg/g) | apoptosis of photoreceptors ([1]; PhA concentrations higher than 2500 μg/g) | oxidative stress (Bcl-2/Bax index) ([1]; PhA ≦20 μg/g compared with ≧100 μg/g) | ratio Bcl-2/Bax ([2]; 20 μg/g of PhA versus rats fed with <5 μg/g) | neutralisation of the inhibitor effect of the apoptosis ([2]; PhA up to 12500 μgPhA/g of oil) | anti-apoptotic activity in photoreceptors ([2]; diet with DHA at 15%, PhA between 0 and 20 μg/g, MNU 75 mg/kg i.p.) | physiological activity as an inhibitor of apoptosis (FIG. 2) ([2]; oral consumption of DHA <5 μg/g of PhA) | anti-apoptotic activity and markers Bax and Bcl-2 with regards to DHA without PhA added ([2]; rats fed with DHA <5 μg/g) | inhibition of the synthesis of leukotrienes [3] | reduction of prostaglandin E2 [3] | reduction of prostaglandin F2 [3] | toxic dose [4]
CC/C=C\C/C=C\C/C=C\C/C=C\C/C=C\C/C=C\CCC(=O)O [DHA] | notably higher | greater inhibitory activity of apoptosis | less | significantly reduced | neutralised | apoptosis of photoreceptors is induced | significantly less oxidative stress | significantly lower | no neutralisation | greater anti-apoptotic activity | greater physiological activity | do not reveal alterations | 76% | 40% | 81% | –
CC(C)CCCC(C)CCCC(C)CCCC(C)CC(=O)O (stereo not shown) [PhA, phytanic acid] | – | – | – | – | – | – | – | – | – | – | – | – | – | – | – | 0.1 μmol/mg fat

From patent publication US9062275B2, “Compositions rich in omega-3 fatty acids with a low content in phytanic acid” (NATAC PHARMA, S.L., priority 2009, dated 2015)
